Values of other authors, collected in PubChem BioAssay AID1259409 (Chemical Carcinogenesis Research Information System (CCRIS), 2018).

Test system: rodent chemically induced tumor inhibition, incidence and multiplicity
Assay: CCRIS tumor inhibitor studies
Conditions: Promoter: NONE USED

In the case of Ac-SDAAVDTSSEITTKDLKEKKEVVEEAEN-OH, the “tumour outcome (control, treated, inhibition, significance)” value (Carcinogen: N-BUTYL-N-(4-HYDROXYBUTYL)NITROSAMINE, 3817-11-6, Dose [Inhibitor]: 0, 0.3 UG IN 100 µL SALINE INJECTED INTO RIGHT THIGH 2/WK FOR 20 WK (STUDY DURATION: 20 WK), Route [Inhibitor]: INTRAMUSCULAR, Species: MOUSE, Strain/Sex: C3H/HEJ/FEMALE, Target Tissue: Type of Lesion: BLADDER: CARCINOMA, Dose [Carcinogen]: 0.05% (W/V) SOLUTION IN DRINKING WATER WITH 0.001% (W/V) TWEEN 80 FOR 20 WK) is given as 6/11 (55%), 5/12 (42%), 24%, not significant, the “tumour outcome (control, treated, inhibition, significance)” value (Carcinogen: N-BUTYL-N-(4-HYDROXYBUTYL)NITROSAMINE, 3817-11-6, Dose [Inhibitor]: 0, 0.3 UG IN 100 µL SALINE INJECTED INTO RIGHT THIGH 2/WK FOR 25 WK (STUDY DURATION: 25 WK), Route [Inhibitor]: INTRAMUSCULAR, Species: MOUSE, Strain/Sex: C3H/HEJ/FEMALE, Target Tissue: Type of Lesion: BLADDER: CARCINOMA, Dose [Carcinogen]: 0.05% (W/V) SOLUTION IN DRINKING WATER WITH 0.001% (W/V) TWEEN 80 FOR 25 WK) is given as 9/16 (56%), 9/16 (56%), 0%, not significant and the “tumour outcome (control, treated, inhibition, significance)” value (Carcinogen: N-BUTYL-N-(4-HYDROXYBUTYL)NITROSAMINE, 3817-11-6, Dose [Inhibitor]: 0, 6 UG IN 100 µL SALINE INJECTED INTO RIGHT THIGH 2/WK FOR 30 WK (STUDY DURATION: 30 WK), Route [Inhibitor]: INTRAMUSCULAR, Species: RAT, Strain/Sex: WISTAR/FEMALE, Target Tissue: Type of Lesion: BLADDER: CARCINOMA, Dose [Carcinogen]: 0.025% (W/V) SOLUTION IN DRINKING WATER WITH 0.0005% (W/V) TWEEN 80 FOR 30 WK) is given as 9/11 (82%), 6/11 (55%), 33%, not significant.

In the case of `Cn1c(=O)[nH]c2nc[nH]c2c1=O`, the “tumour outcome (control, treated, inhibition, significance)” value (Carcinogen: URETHANE, 51-79-6, Dose [Inhibitor]: 0.05 UMOL/G BW GIVEN AT 6 HR INTERVALS DURING THE PERIOD OF 0 TO 36 HR AFTER CARCINOGEN TREATMENT FOLLOWED BY 5 MO OBSER, Route [Inhibitor]: INTRAPERITONEAL, Species: MOUSE, Strain/Sex: ICR/FEMALE, Target Tissue: Type of Lesion: LUNG: PAPILLARY ADENOMA, Dose [Carcinogen]: 0.1 MG/G BW ONCE) is listed as 31/59 (53%), 18/36 (50%), 6%, not significant and the “tumour outcome (control, treated, inhibition, significance)” value (Carcinogen: URETHANE, 51-79-6, Dose [Inhibitor]: 0.25 UMOL/G BW 1/D DURING THE PERIOD OF 5 TO 9 D AFTER CARCINOGEN TREATMENT FOLLOWED BY OBSERVATION PERIOD UNTIL END OF, Route [Inhibitor]: INTRAPERITONEAL, Species: MOUSE, Strain/Sex: ICR/FEMALE, Target Tissue: Type of Lesion: LUNG: PAPILLARY ADENOMA, Dose [Carcinogen]: 1 MG/G BW ONCE) is listed as 49/53 (93%), 39/43 (91%), 2%, not significant.

In the case of `CC(=O)OCC(=O)[C@@]1(O)CC[C@H]2[C@@H]3CCC4=CC(=O)CC[C@]4(C)[C@H]3C(=O)C[C@@]21C`, the “tumour outcome (control, treated, inhibition, significance)” value (Carcinogen: 1,2-DIMETHYLHYDRAZINE DIHYDROCHLORIDE, 306-37-6, Dose [Inhibitor]: 0, 2.5 MG/KG IN PEANUT OIL ON DAYS 1 AND 3 OF STUDY THEN 1/WK FOR 30 WK (STUDY DURATION: 31 WK), Route [Inhibitor]: SUBCUTANEOUS, Species: RAT, Strain/Sex: SPRAGUE-DAWLEY/MALE, Target Tissue: Type of Lesion: COLON: ADENOCARCINOMA, Dose [Carcinogen]: 9 MG/KG 1/WK FOR 7 WK THEN 19.4 MG/KG 1/WK FOR 13 WK) is listed as 14/14 (100%), 12/13 (92%), 8%, not significant and the “tumour outcome (control, treated, inhibition, significance)” value (Carcinogen: 1,2-DIMETHYLHYDRAZINE DIHYDROCHLORIDE, 306-37-6, Dose [Inhibitor]: 0, 2.5 MG/KG IN PEANUT OIL ON DAYS 1 AND 3 OF STUDY THEN 1/WK FOR 30 WK (STUDY DURATION: 31 WK), Route [Inhibitor]: SUBCUTANEOUS, Species: RAT, Strain/Sex: SPRAGUE-DAWLEY/MALE, Target Tissue: Type of Lesion: SMALL INTESTINE: ADENOCARCINOMA, Dose [Carcinogen]: 9 MG/KG 1/WK FOR 7 WK THEN 19.4 MG/KG 1/WK FOR 13 WK) is listed as 13/14 (93%), 10/13 (77%), 17%, not significant.

In the case of `CCOC(=O)C(C)(C)Oc1ccc(Cl)cc1`, the “tumour outcome (control, treated, inhibition, significance)” value (Carcinogen: N-NITROSOBIS(2-HYDROXYPROPYL)AMINE, 53609-64-6, Dose [Inhibitor]: 0.25% IN DIET FOLLOWING LAST CARCINOGEN DOSE FOR 30 WK (STUDY DURATION: 35 WK), Route [Inhibitor]: ORAL, Species: HAMSTER, Strain/Sex: SYRIAN/MALE, Target Tissue: Type of Lesion: KIDNEY: RENAL CELL CARCINOMA, Dose [Carcinogen]: 500 MG/KG BW 1/WK FOR 5 WK) is given as 1/17 (6%), 2/16 (13%), -117%, not calculated, the “tumour outcome (control, treated, inhibition, significance)” value (Carcinogen: N-NITROSOBIS(2-HYDROXYPROPYL)AMINE, 53609-64-6, Dose [Inhibitor]: 0.25% IN DIET FOLLOWING LAST CARCINOGEN DOSE FOR 30 WK (STUDY DURATION: 35 WK), Route [Inhibitor]: ORAL, Species: HAMSTER, Strain/Sex: SYRIAN/MALE, Target Tissue: Type of Lesion: LUNG: ADENOCARCINOMA, Dose [Carcinogen]: 500 MG/KG BW 1/WK FOR 5 WK) is given as 3/17 (18%), 0/16 (0%), 100%, not calculated and the “tumour outcome (control, treated, inhibition, significance)” value (Carcinogen: N-NITROSOBIS(2-HYDROXYPROPYL)AMINE, 53609-64-6, Dose [Inhibitor]: 0.25% IN DIET FOLLOWING LAST CARCINOGEN DOSE FOR 30 WK (STUDY DURATION: 35 WK), Route [Inhibitor]: ORAL, Species: HAMSTER, Strain/Sex: SYRIAN/MALE, Target Tissue: Type of Lesion: LUNG: ADENOMA, Dose [Carcinogen]: 500 MG/KG BW 1/WK FOR 5 WK) is given as 16/17 (94%), 10/16 (63%), 33%, not calculated. For the same compound, the “tumour outcome (control, treated, inhibition, significance)” value (Carcinogen: N-NITROSOBIS(2-HYDROXYPROPYL)AMINE, 53609-64-6, Dose [Inhibitor]: 0.25% IN DIET FOLLOWING LAST CARCINOGEN DOSE FOR 30 WK (STUDY DURATION: 35 WK), Route [Inhibitor]: ORAL, Species: HAMSTER, Strain/Sex: SYRIAN/MALE, Target Tissue: Type of Lesion: PANCREAS: ADENOCARCINOMA, Dose [Carcinogen]: 500 MG/KG BW 1/WK FOR 5 WK) was 8/17 (47%), 3/16 (19%), 60%, not calculated, the “tumour outcome (control, treated, inhibition, significance)” value (Carcinogen: N-NITROSOBIS(2-HYDROXYPROPYL)AMINE, 53609-64-6, Dose [Inhibitor]: 0.25% IN DIET FOLLOWING LAST CARCINOGEN DOSE FOR 30 WK (STUDY DURATION: 35 WK), Route [Inhibitor]: ORAL, Species: HAMSTER, Strain/Sex: SYRIAN/MALE, Target Tissue: Type of Lesion: PANCREAS: ADENOMA, Dose [Carcinogen]: 500 MG/KG BW 1/WK FOR 5 WK) was 5/17 (29%), 4/16 (25%), 14%, not calculated and the “tumour outcome (control, treated, inhibition, significance)” value (Carcinogen: N-NITROSOBIS(2-HYDROXYPROPYL)AMINE, 53609-64-6, Dose [Inhibitor]: 0.5% IN DIET FOLLOWING LAST CARCINOGEN DOSE FOR 30 WK (STUDY DURATION: 35 WK), Route [Inhibitor]: ORAL, Species: HAMSTER, Strain/Sex: SYRIAN/MALE, Target Tissue: Type of Lesion: KIDNEY: RENAL CELL CARCINOMA, Dose [Carcinogen]: 500 MG/KG BW 1/WK FOR 5 WK) was 1/17 (6%), 3/17 (18%), -200%, not calculated. For the same compound, the “tumour outcome (control, treated, inhibition, significance)” value (Carcinogen: N-NITROSOBIS(2-HYDROXYPROPYL)AMINE, 53609-64-6, Dose [Inhibitor]: 0.5% IN DIET FOLLOWING LAST CARCINOGEN DOSE FOR 30 WK (STUDY DURATION: 35 WK), Route [Inhibitor]: ORAL, Species: HAMSTER, Strain/Sex: SYRIAN/MALE, Target Tissue: Type of Lesion: LUNG: ADENOCARCINOMA, Dose [Carcinogen]: 500 MG/KG BW 1/WK FOR 5 WK) was 3/17 (18%), 2/17 (12%), 33%, not calculated, the “tumour outcome (control, treated, inhibition, significance)” value (Carcinogen: N-NITROSOBIS(2-HYDROXYPROPYL)AMINE, 53609-64-6, Dose [Inhibitor]: 0.5% IN DIET FOLLOWING LAST CARCINOGEN DOSE FOR 30 WK (STUDY DURATION: 35 WK), Route [Inhibitor]: ORAL, Species: HAMSTER, Strain/Sex: SYRIAN/MALE, Target Tissue: Type of Lesion: LUNG: ADENOMA, Dose [Carcinogen]: 500 MG/KG BW 1/WK FOR 5 WK) was 16/17 (94%), 9/17 (53%), 44%, p<0.05 and the “tumour outcome (control, treated, inhibition, significance)” value (Carcinogen: N-NITROSOBIS(2-HYDROXYPROPYL)AMINE, 53609-64-6, Dose [Inhibitor]: 0.5% IN DIET FOLLOWING LAST CARCINOGEN DOSE FOR 30 WK (STUDY DURATION: 35 WK), Route [Inhibitor]: ORAL, Species: HAMSTER, Strain/Sex: SYRIAN/MALE, Target Tissue: Type of Lesion: PANCREAS: ADENOCARCINOMA, Dose [Carcinogen]: 500 MG/KG BW 1/WK FOR 5 WK) was 8/17 (47%), 1/17 (6%), 87%, p<0.05. The “tumour outcome (control, treated, inhibition, significance)” value (Carcinogen: N-NITROSOBIS(2-HYDROXYPROPYL)AMINE, 53609-64-6, Dose [Inhibitor]: 0.5% IN DIET FOLLOWING LAST CARCINOGEN DOSE FOR 30 WK (STUDY DURATION: 35 WK), Route [Inhibitor]: ORAL, Species: HAMSTER, Strain/Sex: SYRIAN/MALE, Target Tissue: Type of Lesion: PANCREAS: ADENOMA, Dose [Carcinogen]: 500 MG/KG BW 1/WK FOR 5 WK) was 5/17 (29%), 2/17 (12%), 59%, not calculated.
